Source: patent US20110152079A1, “Pesticidal Compound Mixtures” (BAYER CROPSCIENCE AG, priority 2009, published 2011)

Columns and labels:
Type in all cases: in vivo
Myzus persicae = Myzus persicae - Test (sprayed cabbage leaves); conditions: single compound; for mortality at 500 g/ha / Mortality in % after 6d: 500 g/ha
Protocol: (§1) Solvent: 78 parts by weight of acetone • • 1.5 parts by weight of dimethylformamide Emulsifier: 0.5 parts by weight of alkylaryl polyglycole-ether
(§2) To produce a suitable preparation of active compound, 1 part by weight of active compound is mixed with the stated amount of solvent and emulsifier, and the concentrate is diluted with emulsifier-containing water to the desired concentration.
Cabbage leaves (Brassica oleracea) which are heavily infested by the green peach aphid (Myzus persicae) are treated by being sprayed with the preparation of the active compound at the desired concentration. After the specified period of time, the mortality in % is determined 100% means that all the aphids have been killed; 0% means that none of the aphids have been killed.

Tetranychus urticae = Tetranychus urticae - Test (OP-resistant, bean plants); conditions: 144 h, single compound, 6 d, read-out: Mortality in % after 6d
Protocol: as §1, §2
Bean plants (Phaseolus vulgaris) which are heavily infested with all stages of the two-spotted spider mite (Tetranychus urticae) are treated by being sprayed with the preparation of the active compound at the desired concentration.
After the specified period of time, mortality in % is determined 100% means that all the spider mites have been killed; 0% means that none of the spider mites have been killed.

Spodoptera frugiperda = Spodoptera frugiperda - Test (sprayed cabbage leaves); conditions: 500 g/ha, single compound
Protocol: as §1, §2
Cabbage leaves (Brassica oleracea) are treated by being sprayed with the preparation of the active compound at the desired concentration and are infested with larvae of the fall army worm (Spodoptera frugiperda) as long as the leaves are still moist.
After the specified period of time, the mortality in % is determined 100% means that all the caterpillars have been killed; 0% means that none of the caterpillars have been killed.

Phaedon cochleariae = Phaedon cochleariae Larven - Test (sprayed cabbage leaves); conditions: 144 h, single compound, 6 d, read-out: Mortality in % after 6d
Protocol: as §1, §2
Cabbage leaves (Brassica oleracea) are treated by being sprayed with the preparation of the active compound at the desired concentration and are infested with larvae of the mustard beetle (Phaedon cochleariae) as long as the leaves are still moist.
After the specified period of time, the mortality in % is determined 100% means that all the beetle larvae have been killed; 0% means that none of the beetle larvae have been killed.

[1] = Myzus persicae, 144 h, 6 d, read-out: Mortality in % after 6d

In the case of `COC(=O)C(C)N(C(=O)Cc1ccccc1)c1c(C)cccc1C` (stereo not shown) [Benalaxyl], the mortality at 500 g/ha (Myzus persicae; [1]) is reported as 0%.

`CC1(C(=O)Nc2ccc(O)c(Cl)c2Cl)CCCCC1` [Fenhexamid] showed a mortality at 500 g/ha (Myzus persicae; [1]) of 0% and a mortality at 500 g/ha (Tetranychus urticae) of 0%.

`O=C(NCc1ncc(C(F)(F)F)cc1Cl)c1c(Cl)cccc1Cl` [Fluopicolide] was tested, and the “Mortality in % after 6d” value (Myzus persicae) was 0%.

`CCO[PH](=O)O` [Fosetyl AL] was tested, and the “Mortality in % after 6d” value (Myzus persicae) was 0%.

In the case of `N#Cc1ccccc1NC(=O)c1snc(Cl)c1Cl` [Isotianil], the “Mortality in % after 6d” value (Spodoptera frugiperda) is reported as 0%.

`COCC(=O)N(c1c(C)cccc1C)C(C)C(=O)OC` (stereo not shown) [Metalaxyl] showed a mortality at 500 g/ha (Phaedon cochleariae; 500 g/ha) of 0%.

`CCCN(CCOc1c(Cl)cc(Cl)cc1Cl)C(=O)n1ccnc1` [Prochloraz] showed a mortality at 500 g/ha (Myzus persicae; [1]) of 0%.

In the case of `CN(C)C(=S)SSC(=S)N(C)C` [Thiram], the mortality at 500 g/ha (Myzus persicae; [1]) is reported as 0%.

`Cc1ccc(N(SC(F)(Cl)Cl)S(=O)(=O)N(C)C)cc1` [Tolyfluanid] gave a mortality at 500 g/ha (Tetranychus urticae) of 0%.

Molecule `CC1(C)[C@H](C=C(Cl)Cl)[C@H]1C(=O)OCc1c(F)c(F)cc(F)c1F` [Transfluthrin] has a mortality at 20 g/ha (Myzus persicae; Myzus persicae, 144 h, 20 g/ha, 6 d, read-out: Mortality in % after 6d) of 0%, a mortality at 20 g/ha (Phaedon cochleariae; 20 g/ha) of 50% and a mortality at 100 g/ha (Tetranychus urticae; 100 g/ha) of 0%.
